According to article PMC11483813, “Bombesin-Targeted Delivery of β-Carboline-Based Ir(III) and Ru(II) Photosensitizers for a Selective Photodynamic Therapy of Prostate Cancer” (Inorganic Chemistry, 2024):

What was measured:
PC-3 cells = assay: Cellular internalization by ICP-MS; assay type: cell-based, human; details: 5 μM, 4 h
Procedure: Figure 10 Cellular internalization. PC-3 cells were incubated for 4 h with the indicated compounds at 5 μM, and the Ir (A) or Ru (B) content per 1 × 10^6 cells was quantified by ICP-MS. Bars represent the mean value of three replicates ± SD. * p < 0.05; *** p < 0.001 versus Ir-H or Ru-H.
The intracellular accumulation of the PSs is a crucial requirement to achieve a photocytotoxic effect. This is because the ROS generated by the PSs have a very limited radius of action and only operate in the cellular compartment or organelle in which they are generated.[57] […] This further emphasizes the importance of cellular uptake for their cytotoxic activity. Additionally, when using tumor-targeting ligands, such as BN3, the intracellular uptake of the metallopeptides depends on the level of expression of the target receptor on the cell surface and the internalization mechanism, which may differ from that of the free complex. Therefore, the internalization of complexes Ir-H, Ir-Me, Ru-H, and Ru-Me and of metallopeptides Ir-BN and Ru-BN in PC-3 cells was determined by quantifying the intracellular metal content by inductively coupled plasma mass spectrometry (ICP-MS) (Figure 10). After 4 h treatment with the compounds at 5 μM, the amount of Ir in cells exposed to Ir-H was 3.1 ± 0.7 ng per million cells, whereas in the case of its conjugated form Ir-BN, it increased 5.7-fold to 17.9 ± 5.6 ng per million cells. […]
PC-3 cells were seeded in 6-well plates at a density of 2 million cells/well. […] The number of cells in each sample was determined using a Novocyte flow cytometer (Agilent Technologies). The samples were centrifuged to obtain the cell pellet, and the complex content was subsequently assessed using inductively coupled plasma mass spectrometry (ICP-MS). […] The Ir or Ru content was analyzed in Agilent 7500c ICP-MS located at the Technical Research Services of the University of Girona. […] The isotopes detected were ^193Ir, ^101Ru, and ^103Rh, respectively. […] Three independent samples were analyzed for each complex.

[1] = pKa determination from emission intensity versus pH; assay type: physicochemical; details: H2O:DMSO (99:1), 10^–5 M, 25 °C
From the text: Ir-H and Ru-H are susceptible to deprotonation in aqueous media due to the presence of the acidic −COOH group. In fact, the actual protonation state of these complexes at the different physiological pH values defines their global charge and correspondingly influences their solubility, their photophysical properties, and their cellular uptake.[45]−[47] Thus, the pKa values of Ir-H and Ru-H in their excited states were experimentally determined by monitoring the variations of their emission intensity at specific wavelengths versus different pH values and fitting the data (Iem,λ/pH) to a sigmoidal equation. In good agreement with similar complexes reported in the literature,[45],[46] there was a gradual decrease in the emission intensity of Ir-H and Ru-H with decreasing pH (Figures 4 and S50). […] These values can be considered as an acceptable approximation to the values of the respective ground states. Therefore, we concluded that Ir-H and Ru-H adopt their deprotonated zwitterionic forms in the whole range of physiological pHs. This means that Ir-H assumes a zwitterionic neutral form, while Ru-H adopts a zwitterionic monocationic structure. In both cases, there is charge separation, and as a result, we predict that the cellular uptake ability of these complexes could be reduced, in comparison to that of their relatives Ir-Me and Ru-Me.
Figure 4 pKa determination. […]

[2] = Self-aggregation study (Lambert-Beer law, UV-vis); assay type: physicochemical; details: H2O:DMSO (99:1), 1 to 40 μM, absorbance at 417 nm
Procedure: The possible aggregation properties (self-assembly behavior) were investigated for the lipophilic derivative Ir-Me through the respective analysis of the Lambert–Beer law using UV–vis spectroscopy in H2O:DMSO (99:1). More specifically, the absorbance of Ir-Me at λ = 417 nm was plotted versus concentration in the range between 1 and 40 μM. An excellent linear fitting was obtained confirming that there is no significant deviation from the Lambert–Beer law (Figures S57 and S58).

Row | amount of Ir in cells (PC-3 cells) | pKa (excited state) [1] | intracellular Ru content (PC-3 cells) | self-aggregation [2] | SMILES
1 | 3.1 ± 0.7 ng per million cells | 3.81 | – | – | Cn1c2ccccc2c2ccnc(-c3ccc(/C=C/C(=O)O)cn3)c21.[Cl-].[Ir+3].[c-]1ccccc1-c1ccccn1.[c-]1ccccc1-c1ccccn1 [Ir-H]
2 | – | 4.51 | 0.329 ng per million cells | – | Cn1c2ccccc2c2ccnc(-c3ccc(/C=C/C(=O)O)cn3)c21.[Cl-].[Cl-].[Ru+2].c1ccc(-c2ccccn2)nc1.c1ccc(-c2ccccn2)nc1 [Ru-H]
3 | 266.4 ± 13.9 ng per million cells | – | – | does not form aggregates | COC(=O)/C=C/c1ccc(-c2nccc3c4ccccc4n(C)c23)nc1.[Cl-].[Ir+3].[c-]1ccccc1-c1ccccn1.[c-]1ccccc1-c1ccccn1 [Ir-Me]
